Data as given in the NIST ThermoML archive (doi:10.1016/j.tca.2015.06.017).

Assay: xn = mol fraction of the nth substance listed
Settings: Liquid, Vibrating tube method

CC(C)(C)Cl [2-chloro-2-methylpropane] + CCCCCCC
mass density [kg/m3]
Settings	283.15 K	293.15 K	298.15 K
100 kPa, x2 = 0.0554	842.44	830.68	824.75
100 kPa, x2 = 0.1017	832.31	820.81	814.99
100 kPa, x2 = 0.2004	811.94	800.91	795.33
100 kPa, x2 = 0.3016	792.65	782.03	776.67
100 kPa, x2 = 0.4097	773.66	763.43	758.26
100 kPa, x2 = 0.498	759.27	749.33	744.32
100 kPa, x2 = 0.5983	744.02	734.42	729.58
100 kPa, x2 = 0.7017	729.43	720.16	715.49
100 kPa, x2 = 0.7995	716.55	707.61	703.09
100 kPa, x2 = 0.9032	703.79	695.15	690.79
100 kPa, x2 = 0.9482	698.49	689.98	685.68
2000 kPa, x2 = 0.0554	844.68	833.14	827.29
2000 kPa, x2 = 0.1017	834.48	823.24	817.46
2000 kPa, x2 = 0.2004	814.1	803.29	797.78
2000 kPa, x2 = 0.3016	794.78	784.22	778.97
2000 kPa, x2 = 0.4097	775.6	765.58	760.5
2000 kPa, x2 = 0.498	761.33	751.59	746.66
2000 kPa, x2 = 0.5983	745.93	736.51	731.77
2000 kPa, x2 = 0.7017	731.35	722.23	717.66
2000 kPa, x2 = 0.7995	718.47	709.61	705.19
2000 kPa, x2 = 0.9032	705.72	697.14	692.86
2000 kPa, x2 = 0.9482	700.41	691.94	687.76
5000 kPa, x2 = 0.0554	848.13	836.88	831.22
5000 kPa, x2 = 0.1017	837.91	826.9	821.35
5000 kPa, x2 = 0.2004	817.4	806.74	801.38
5000 kPa, x2 = 0.3016	797.97	787.77	782.63
5000 kPa, x2 = 0.4097	778.78	769.03	763.93
5000 kPa, x2 = 0.498	764.17	754.81	749.94
5000 kPa, x2 = 0.5983	748.83	739.75	734.95
5000 kPa, x2 = 0.7017	734.11	725.28	720.69
5000 kPa, x2 = 0.7995	721.17	712.57	708.17
5000 kPa, x2 = 0.9032	708.35	700.04	695.72
5000 kPa, x2 = 0.9482	703.02	694.81	690.58
7000 kPa, x2 = 0.0554	850.47	839.29	833.69
7000 kPa, x2 = 0.1017	840.22	829.3	823.79
7000 kPa, x2 = 0.2004	819.61	809.03	803.89
7000 kPa, x2 = 0.3016	800.1	789.87	784.93
7000 kPa, x2 = 0.4097	780.74	771.15	766.14
7000 kPa, x2 = 0.498	766.3	756.85	752.1
7000 kPa, x2 = 0.5983	750.75	741.66	737.06
7000 kPa, x2 = 0.7017	736.02	727.16	722.75
7000 kPa, x2 = 0.7995	722.99	714.5	710.2
7000 kPa, x2 = 0.9032	710.1	701.82	697.64
7000 kPa, x2 = 0.9482	704.76	696.6	692.49
10000 kPa, x2 = 0.0554	853.75	842.85	837.41
10000 kPa, x2 = 0.1017	843.46	832.92	827.3
10000 kPa, x2 = 0.2004	822.51	812.44	807.34
10000 kPa, x2 = 0.3016	803.09	793.26	788.26
10000 kPa, x2 = 0.4097	783.69	774.21	769.41
10000 kPa, x2 = 0.498	769.05	759.84	755.22
10000 kPa, x2 = 0.5983	753.62	744.65	740.1
10000 kPa, x2 = 0.7017	738.75	730.1	725.72
10000 kPa, x2 = 0.7995	725.53	717.31	712.96
10000 kPa, x2 = 0.9032	712.59	704.57	700.3
10000 kPa, x2 = 0.9482	707.21	699.31	695.09
20000 kPa, x2 = 0.0554	864	853.69	848.71
20000 kPa, x2 = 0.1017	853.55	843.51	838.45
20000 kPa, x2 = 0.2004	832.47	822.74	818.1
20000 kPa, x2 = 0.3016	812.54	803.2	798.58
20000 kPa, x2 = 0.4097	792.93	783.9	779.66
20000 kPa, x2 = 0.498	778.04	769.27	765.11
20000 kPa, x2 = 0.5983	762.35	753.74	749.57
20000 kPa, x2 = 0.7017	747.22	738.84	734.93
20000 kPa, x2 = 0.7995	733.81	725.88	721.79
20000 kPa, x2 = 0.9032	720.64	712.92	708.9
20000 kPa, x2 = 0.9482	715.18	707.57	703.58
30000 kPa, x2 = 0.0554	873.3	863.54	858.8
30000 kPa, x2 = 0.1017	862.73	853.13	848.35
30000 kPa, x2 = 0.2004	841.24	832.13	827.76
30000 kPa, x2 = 0.3016	821.19	812.29	807.95
30000 kPa, x2 = 0.4097	801.28	792.63	788.48
30000 kPa, x2 = 0.498	786.13	777.78	773.73
30000 kPa, x2 = 0.5983	770.17	762.02	758.07
30000 kPa, x2 = 0.7017	754.83	746.9	743.08
30000 kPa, x2 = 0.7995	741.14	733.66	729.79
30000 kPa, x2 = 0.9032	727.83	720.51	716.58
30000 kPa, x2 = 0.9482	722.3	715.09	711.27
40000 kPa, x2 = 0.0554	881.82	872.42	867.89
40000 kPa, x2 = 0.1017	870.96	862.05	857.39
40000 kPa, x2 = 0.2004	849.41	840.65	836.44
40000 kPa, x2 = 0.3016	829.08	820.63	816.41
40000 kPa, x2 = 0.4097	808.91	800.54	796.66
40000 kPa, x2 = 0.498	793.67	785.54	781.69
40000 kPa, x2 = 0.5983	777.41	769.5	765.72
40000 kPa, x2 = 0.7017	761.79	754.19	750.52
40000 kPa, x2 = 0.7995	747.96	740.77	737.07
40000 kPa, x2 = 0.9032	734.49	727.37	723.74
40000 kPa, x2 = 0.9482	728.9	721.88	718.29
50000 kPa, x2 = 0.0554	889.56	880.62	876.38
50000 kPa, x2 = 0.1017	878.68	870	865.68
50000 kPa, x2 = 0.2004	856.76	848.46	844.44
50000 kPa, x2 = 0.3016	836.39	828.17	824.32
50000 kPa, x2 = 0.4097	815.92	807.96	804.27
50000 kPa, x2 = 0.498	800.51	792.71	789.1
50000 kPa, x2 = 0.5983	784.09	776.5	772.96
50000 kPa, x2 = 0.7017	768.34	761.01	757.53
50000 kPa, x2 = 0.7995	754.42	747.33	743.9
50000 kPa, x2 = 0.9032	740.62	733.84	730.37
50000 kPa, x2 = 0.9482	734.97	728.3	724.81
60000 kPa, x2 = 0.0554	896.85	888.24	884.1
60000 kPa, x2 = 0.1017	885.94	877.59	873.27
60000 kPa, x2 = 0.2004	863.93	855.9	852
60000 kPa, x2 = 0.3016	843.17	835.3	831.63
60000 kPa, x2 = 0.4097	822.77	814.87	811.3
60000 kPa, x2 = 0.498	807.05	799.57	796.01
60000 kPa, x2 = 0.5983	790.42	783.15	779.73
60000 kPa, x2 = 0.7017	774.43	767.47	764.12
60000 kPa, x2 = 0.7995	760.28	753.62	750.3
60000 kPa, x2 = 0.9032	746.42	739.97	736.68
60000 kPa, x2 = 0.9482	740.73	734.33	731.11
65000 kPa, x2 = 0.0554	900.21	891.92	887.83
65000 kPa, x2 = 0.1017	889.29	881.11	877.03
65000 kPa, x2 = 0.2004	867.33	859.41	855.63
65000 kPa, x2 = 0.3016	846.38	838.73	834.93
65000 kPa, x2 = 0.4097	825.84	818.27	814.66
65000 kPa, x2 = 0.498	809.97	802.79	799.35
65000 kPa, x2 = 0.5983	793.31	786.25	782.96
65000 kPa, x2 = 0.7017	777.27	770.47	767.16
65000 kPa, x2 = 0.7995	763.11	756.52	753.28
65000 kPa, x2 = 0.9032	749.1	742.75	739.66
65000 kPa, x2 = 0.9482	743.43	737.09	734.01
